Assay: n vitro cytoprotection assay: HEp-2 cells, (originally derived from tumors grown in irradiated-cortisonised weanling rats that had been injected with epidermoid carcinoma tissue from a person's larynx, but later found to be indistinguishable from HeLa cells by PCR DNA analysis), were used for the culturing of genotype A, “Long” strain RSV. Flasks were inoculated with RSV and viral stocks were collected once cytopathic effect (CPE) was greater than 90%. Viral stocks in 25% sucrose media were snap frozen using liquid nitrogen to increase viral stability. Viral stock titers were quantified by tissue culture infectious dose 50% (TCID50) using 8,000 cells per well and 3-fold viral dilutions across a 96-well plate, cultured for 4 days.Following extensive parameter testing, the final assay is run as follows: HEp-2 cells are seeded into the inner 60 wells of a 96-well plate at 8,000 cells per well in a volume of 50 using Growth Media (DMEM without phenol red, 1% L-Glut, 1% Penn/Strep, 1% nonessential amino acids, 10% FBS). 2-fold serial dilutions of control and test compounds are added to the wells in duplicate in a total volume of 25 μL. Viral stock is then added to the wells in a volume of 25 μL, bringing the total volume of each well to 100 μL. Each 96-well plate has a control column of 6 wells with cells and virus but no compound (negative control, max CPE), a column with cells but no compound or virus (positive control, minimum CPE), and a column with no cells or virus or compound (background plate/reagent control). The control wells with cells but no virus are given an additional 25 uL of growth media containing an equal quantity of sucrose as those wells receiving the viral stock in order to keep consistent in media and volume conditions. The outer wells of the plate are filled with 125 μL of growth media to act as a thermal and evaporative moat around the test wells. Following a 4-day incubation period, the plates are read using ATPlite (50 uL added per well), which quantifies the amount of ATP (a measure of cell health) present in each well. Assay plates are read using the Envision luminometer.

Row | SMILES | EC50 [µM]
1 | O=C1Nc2ccccc2N(c2ccccc2)C[C@@H]1Nc1nnc(-c2ccc(N3CCOCC3)cc2F)o1 | > 5
2 | O=C1Nc2ccccc2N(c2ccccc2)C[C@@H]1Nc1nnc(-c2cn(C3CCCC3)nc2N2CCOCC2)o1 | < 2
3 | Cc1ccc(C(=O)NN)o1 | > 5
4 | O=C(N[C@H]1CN(c2ccccc2)c2ccccc2NC1=O)c1ccccc1 | > 5
5 | NNC(=O)c1ncc(C(F)(F)F)cc1Cl | < 2
6 | COCCNc1cc(C(F)(F)F)cnc1-c1nnc(N[C@H]2CN(c3ccccc3)c3ccccc3NC2=O)o1 | > 5
7 | O=C1Nc2ccccc2N(c2ccccc2)C[C@@H]1Nc1nnc(-c2nc(C3CC3)sc2N2CCOCC2)o1 | < 2
8 | CCOC(=O)c1nc(C(F)(F)F)sc1N1CCOCC1 | < 2
9 | O=C1Nc2ccccc2N(c2ccccc2)C[C@@H]1Nc1nnc(-c2cccnc2N2CCOCC2)o1 | 3.5
10 | O=C(NC1C(=O)Nc2ccccc2N(c2ccccc2)C1=O)c1ccccc1 (stereo not given) | > 5
11 | O=C1Nc2ccccc2N(c2ccccc2)C[C@@H]1Nc1nnc(-c2ncc(C3CC3)cc2N2CCOCC2)o1 | < 2
12 | O=C(Nc1ccccc1)NC1C(=O)Nc2ccccc2N(c2ccccc2)C1=O (stereo not given) | > 5
13 | NNC(=O)c1cn(-c2ccccn2)nc1N1CCOCC1 | 3.5
14 | O=C(NNC(=S)NC1C(=O)Nc2ccccc2N(c2ccccc2)C1=O)c1ccccc1 (stereo not given) | > 5
15 | O=C1Nc2ccccc2N(c2ccccc2)C[C@@H]1Nc1nc2ccccc2o1 | > 5
16 | O=C1Nc2ccccc2N(c2ccccc2)C[C@@H]1Nc1nnc(-c2ccc(F)cc2)o1 | > 5
17 | O=C1Nc2ccccc2N(c2cc(F)c(F)c(F)c2)C[C@@H]1Nc1nnc(-c2ncc(C(F)(F)F)cc2N2CCOCC2)o1 | > 5
18 | O=C1Nc2ccccc2N(c2ccccc2)C[C@@H]1Nc1nnc(-c2ccccc2)o1 | > 5
19 | NNC(=O)c1nc(-c2cccnc2)sc1N1CCOCC1 | < 2
20 | O=C(Nc1ccccc1)N[C@H]1CN(c2ccccc2)c2ccccc2NC1=O | > 5

Reference: ChEMBL document CHEMBL5727896, “Aryldiazepine derivatives as RSV inhibitors” (2020)
